The values below come from BindingDB's records for PubMed 38457911 (China Pharmaceutical University).

For experiment [1], the target named is E3 ubiquitin-protein ligase CBL. In words: Inhibition of c-Cbl (unknown origin) by HTRF method.
For experiment [2] the target is unchanged. In words: Inhibition of c-Cbl (unknown origin) by TR-FRET assay. (In TR-FRET formats the signal depends on donor and acceptor labels being close together.)
Experiment [3] shares this target. In words: Inhibition of c-Cbl (unknown origin) expressed in Escherichia coli measured for 90 mins by HTRF method.
Experiment [4] addresses E3 ubiquitin-protein ligase CBL (Homo sapiens) (UniProt P22681). In words: Binding affinity to c-Cbl (unknown origin) assessed as dissociation constant by SPR assay.

Take `CC(C)[C@H]1CN(C)CCN1Cc1cc(C(=O)Nc2cccc(C3([C@@H](F)c4nncn4C)CC(F)(F)C3)c2)nc(C2CC2)c1`: in experiment [1], the IC50 – broadly, the concentration at which inhibition is half-maximal – stood at 8 nM.
The same measure, in the same setting: under `Cn1cnnc1-c1cc(C#N)ccc1-c1cc(C2CC2)nc(N2Cc3c(cc(CNCC4(F)CCC4)cc3C(F)(F)F)C2=O)c1` stands under 200 nM.
On to `C[C@H]1CCCN(Cc2cc(C(F)(F)F)c3[nH]c(-c4cccc([C@]5(c6nncn6C)C[C@@H](C)C5)c4)nc3c2)C1`, for which, in experiment [2], the IC50 is over 10000 nM.
Consider `Cn1cnnc1[C@]1(c2cccc(NC(=O)c3cc(CN4CCC[C@H](C(F)F)C4)cn4ccnc34)c2)C[C@H](CC#N)C1`, for which the IC50 in experiment [3] was 10 nM.
Still for that read-out and setting: as for `CC(c1cc(C(=O)Nc2cccc([C@]3(c4nncn4C)C[C@@H](CC#N)C3)c2)nc2cc[nH]c12)N1CCC[C@H](C)C1` (stereo partly specified), the figure is 40 nM.
With `COCC1(NCc2cc3c(c(C(F)(F)F)c2)CN(c2cccc([C@]4(c5nncn5C)C[C@H](OC)C4)c2)C3=O)CC1` [2-(3-((1r,3r)-3-methoxy-1-(4-methyl-4H-1,2,4-triazol-3-yl)cyclobutyl)phenyl)-6-(((1-(methoxymethyl)cyclopropyl)amino)methyl)-4-(trifluoromethyl)isoindolin-1-one], the dissociation constant Kd – broadly, a measure of binding affinity in units of concentration – in experiment [4] came out at 210 nM.
